# Target: S1P3 receptor (Homo sapiens, UniProt Q99500)
# Experiment: in vitro activity in the S1P3 receptor
# Format: cell-based
# Details: not given
# Procedure: The in vitro activity of these compounds in the S1P3 receptor was determined using the assay described in paragraph [0067] of United States Patent Application Publication No. 20070232682, which published on Oct. 4, 2007.
# S1P3 receptor, sequence (Q99500 whole entry): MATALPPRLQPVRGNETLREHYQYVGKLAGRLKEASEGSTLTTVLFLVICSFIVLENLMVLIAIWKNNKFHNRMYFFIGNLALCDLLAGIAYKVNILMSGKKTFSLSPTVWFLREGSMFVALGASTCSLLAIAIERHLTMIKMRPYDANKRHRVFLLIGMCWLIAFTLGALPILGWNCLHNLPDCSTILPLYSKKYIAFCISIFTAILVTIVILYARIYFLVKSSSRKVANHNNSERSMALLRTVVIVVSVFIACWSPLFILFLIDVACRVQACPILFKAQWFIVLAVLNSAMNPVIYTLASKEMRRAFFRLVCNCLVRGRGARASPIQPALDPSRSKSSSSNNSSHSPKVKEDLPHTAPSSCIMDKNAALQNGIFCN
row,S1P3 % Inhibition,SMILES
1,98%,"CC#CCOC(=O)Nc1cc2c3c(c1)C(c1ccccc1)CCN3CCC2c1ccccc1 (stereo not drawn) [compound 353, But-2-ynyl 1,7-diphenyl-1,2,3,5,6,7-hexahydropyrido[3,2,1-ij]quinolin-9-ylcarbamate]"
2,97%,"C=CCCOC(=O)Nc1cc2c3c(c1)C(c1ccccc1)CCN3CCC2c1ccccc1 (stereo not drawn) [compound 354, But-3-enyl 1,7-diphenyl-1,2,3,5,6,7-hexahydropyrido[3,2,1-ij]quinolin-9-ylcarbamate]"

# Same assay, conditions: Activity potency nM, (IC50)
row,IC50,SMILES
1,48 nM,"CCOC(=O)Nc1cc2c3c(c1)C(c1cccc(F)c1)CCN3CCC2c1cccc(F)c1 (stereo not drawn) [compound 093, Ethyl 1,7-bis(3-fluorophenyl)-1,2,3,5,6,7-hexahydropyrido[3,2,1-ij]quinolin-9-ylcarbamate]"
2,234 nM,"CCCOC(=O)Nc1cc2c3c(c1)C(c1cccc(F)c1)CCN3CCC2c1cccc(F)c1 (stereo not drawn) [compound 094, Propyl 1,7-bis(3-fluorophenyl)-1,2,3,5,6,7-hexahydropyrido[3,2,1-ij]quinolin-9-ylcarbamate]"
3,56 nM,"O=C(Nc1cc2c3c(c1)C(c1ccccc1)CCN3CCC2c1ccccc1)OCCF (stereo not drawn) [compound 095, 2-fluoroethyl 1,7-diphenyl-1,2,3,5,6,7-hexahydropyrido[3,2,1-ij]quinolin-9-ylcarbamate]"
4,38 nM,"CC(C)(C)NC(=O)Nc1cc2c3c(c1)C(c1ccccc1)CCN3CCC2c1ccccc1 (stereo not drawn) [compound 148, 1-tert-butyl-3-(1,7-diphenyl-1,2,3,5,6,7-hexahydropyrido[3,2,1-ij]quinolin-9-yl)urea]"
5,272 nM,"CCCCOC(=O)Nc1cc2c3c(c1)C(c1cccc(F)c1)CCN3CCC2c1cccc(F)c1 (stereo not drawn) [compound 202, Butyl 1,7-bis(3-fluorophenyl)-1,2,3,5,6,7-hexahydropyrido[3,2,1-ij]quinolin-9-ylcarbamate]"
6,8 nM,"O=C(Nc1cc2c3c(c1)C(c1ccccc1)CCN3CCC2c1ccccc1)OCCCCl (stereo not drawn) [compound 205, 3-chloropropyl 1,7-diphenyl-1,2,3,5,6,7-hexahydropyrido[3,2,1-ij]quinolin-9-ylcarbamate]"
7,62 nM,"O=C(Nc1cc2c3c(c1)C(c1ccccc1)CCN3CCC2c1ccccc1)OCCCCCl (stereo not drawn) [compound 206, 4-chlorobutyl 1,7-diphenyl-1,2,3,5,6,7-hexahydropyrido[3,2,1-ij]quinolin-9-ylcarbamate]"
8,153 nM,"CCCNC(=S)Nc1cc2c3c(c1)C(c1ccccc1)CCN3CCC2c1ccccc1 (stereo not drawn) [compound 255, 1-(1,7-diphenyl-1,2,3,5,6,7-hexahydropyrido[3,2,1-ij]quinolin-9-yl)-3-propylthiourea]"
9,78 nM,"CCCCCCNC(=S)Nc1cc2c3c(c1)C(c1ccccc1)CCN3CCC2c1ccccc1 (stereo not drawn) [compound 256, 1-(1,7-diphenyl-1,2,3,5,6,7-hexahydropyrido[3,2,1-ij]quinolin-9-yl)-3-hexylthiourea]"
10,59 nM,"O=C(NCc1ccoc1)Nc1cc2c3c(c1)C(c1ccccc1)CCN3CCC2c1ccccc1 (stereo not drawn) [compound 258, 1-(1,7-diphenyl-1,2,3,5,6,7-hexahydropyrido[3,2,1-ij]quinolin-9-yl)-3-(furan-3-ylmethyl)urea]"
11,8.3 nM,"COC(=O)Nc1cc2c3c(c1)C(c1ccccc1)CCN3CCC2c1ccccc1 (stereo not drawn) [compound 272, methyl 1,7-diphenyl-1,2,3,5,6,7-hexahydropyrido[3,2,1-ij]quinolin-9-ylcarbamate]"
12,63 nM,"CCOC(=O)Nc1cc2c3c(c1)C(c1ccccc1)CCN3CCC2c1ccccc1 (stereo not drawn) [compound 273, Ethyl 1,7-diphenyl-1,2,3,5,6,7-hexahydropyrido[3,2,1-ij]quinolin-9-ylcarbamate]"
13,64 nM,"CC(C)COC(=O)Nc1cc2c3c(c1)C(c1ccccc1)CCN3CCC2c1ccccc1 (stereo not drawn) [compound 274, Isobutyl 1,7-diphenyl-1,2,3,5,6,7-hexahydropyrido[3,2,1-ij]quinolin-9-ylcarbamate]"
14,12.2 nM,"CCCOC(=O)Nc1cc2c3c(c1)C(c1ccccc1)CCN3CCC2c1ccccc1 (stereo not drawn) [compound 275, Propyl 1,7-diphenyl-1,2,3,5,6,7-hexahydropyrido[3,2,1-ij]quinolin-9-ylcarbamate]"
15,8.7 nM,"CCCCOC(=O)Nc1cc2c3c(c1)C(c1ccccc1)CCN3CCC2c1ccccc1 (stereo not drawn) [compound 276, Butyl 1,7-diphenyl-1,2,3,5,6,7-hexahydropyrido[3,2,1-ij]quinolin-9-ylcarbamate]"
16,66 nM,"O=C(Nc1cc2c3c(c1)C(c1ccccc1)CCN3CCC2c1ccccc1)OCc1ccccc1 (stereo not drawn) [compound 278, Benzyl 1,7-diphenyl-1,2,3,5,6,7-hexahydropyrido[3,2,1-ij]quinolin-9-ylcarbamate]"
17,40 nM,"C#CCOC(=O)Nc1cc2c3c(c1)C(c1ccccc1)CCN3CCC2c1ccccc1 (stereo not drawn) [compound 352, Prop-2-ynyl 1,7-diphenyl-1,2,3,5,6,7-hexahydropyrido[3,2,1-ij]quinolin-9-ylcarbamate]"
18,13 nM,"CC#CCOC(=O)Nc1cc2c3c(c1)C(c1ccccc1)CCN3CCC2c1ccccc1 (stereo not drawn) [compound 353, But-2-ynyl 1,7-diphenyl-1,2,3,5,6,7-hexahydropyrido[3,2,1-ij]quinolin-9-ylcarbamate]"
19,16 nM,"C=CCCOC(=O)Nc1cc2c3c(c1)C(c1ccccc1)CCN3CCC2c1ccccc1 (stereo not drawn) [compound 354, But-3-enyl 1,7-diphenyl-1,2,3,5,6,7-hexahydropyrido[3,2,1-ij]quinolin-9-ylcarbamate]"
20,131 nM,"CN(C)C(=O)Nc1cc2c3c(c1)C(c1ccccc1)CCN3CCC2c1ccccc1 (stereo not drawn) [compound 405, 3-(1,7-diphenyl-1,2,3,5,6,7-hexahydropyrido[3,2,1-ij]quinolin-9-yl)-1,1-dimethylurea]"
21,77 nM,"CCNC(=O)Nc1cc2c3c(c1)C(c1ccccc1)CCN3CCC2c1ccccc1 (stereo not drawn) [compound 484, 1-(1,7-diphenyl-1,2,3,5,6,7-hexahydropyrido[3,2,1-ij]quinolin-9-yl)-3-ethylurea]"
22,52 nM,"CCCCNC(=O)Nc1cc2c3c(c1)C(c1ccccc1)CCN3CCC2c1ccccc1 (stereo not drawn) [compound 485, 1-Butyl-3-(1,7-diphenyl-1,2,3,5,6,7-hexahydropyrido[3,2,1-ij]quinolin-9-yl)urea]"
23,301 nM,"CCCCCCNC(=O)Nc1cc2c3c(c1)C(c1ccccc1)CCN3CCC2c1ccccc1 (stereo not drawn) [compound 487, 1-(1,7-diphenyl-1,2,3,5,6,7-hexahydropyrido[3,2,1-ij]quinolin-9-yl)-3-hexylurea]"
24,160 nM,"C=CCNC(=O)Nc1cc2c3c(c1)C(c1ccccc1)CCN3CCC2c1ccccc1 (stereo not drawn) [compound 773, 1-allyl-3-(1,7-diphenyl-1,2,3,5,6,7-hexahydropyrido[3,2,1-ij]quinolin-9-yl)urea]"
25,23 nM,"COC(=O)Nc1cc2c3c(c1)C(c1cccc(F)c1)CCN3CCC2c1cccc(F)c1 (stereo not drawn) [compound 779, Methyl 1,7-bis(3-fluorophenyl)-1,2,3,5,6,7-hexahydropyrido[3,2,1-ij]quinolin-9-ylcarbamate]"
26,130 nM,"O=C(Nc1cc2c3c(c1)C(c1ccccc1)CCN3CCC2c1ccccc1)N1CCOCC1 (stereo not drawn) [compound 983, N-(1,7-diphenyl-1,2,3,5,6,7-hexahydropyrido[3,2,1-ij]quinolin-9-yl)morpholine-4-carboxamide]"

row,SMILES,IC50
1,"O=C(Nc1cc2c3c(c1)C(c1ccccc1)CCN3CCC2c1ccccc1)Oc1ccccc1 (stereo not drawn) [compound 277, Phenyl 1,7-diphenyl-1,2,3,5,6,7-hexahydropyrido[3,2,1-ij]quinolin-9-ylcarbamate]",901 nM
2,"O=C(NCCCl)Nc1cc2c3c(c1)C(c1ccccc1)CCN3CCC2c1ccccc1 (stereo not drawn) [compound 769, 1-(2-chloroethyl)-3-(1,7-diphenyl-1,2,3,5,6,7-hexahydropyrido[3,2,1-ij]quinolin-9-yl)urea]",374 nM

# Source: US20090281322A1, “THERAPEUTICALLY USEFUL SUBSTITUTED 1,7-DIPHENYL-1,2,3,5,6,7-HEXAHYDROPYRIDO[3,2,1-Ij]QUINOLINE COMPOUNDS” (ALLERGAN, INC., priority 2008, published 2009)
